# Literature values as cited in patent publication US20040248901A1, “Compositions containing itraconazole and their preparation methods” (priority 2001, published 2004).
# Conditions: background art
structure (smiles),measurement,value
"CCC(C)n1ncn(-c2ccc(N3CCN(c4ccc(OCC5COC(Cn6cncn6)(c6ccc(Cl)cc6Cl)O5)cc4)CC3)cc2)c1=O (mixture of isomers) [itraconazole, (±)-cis-4-[4-[4-[4-[[2-(2,4-dichlorophenyl)-2-(1H-1,2,4-triazol-1-ylmethyloxolan-4-yl]methoxy]phenyl]-1-piperazinyl]phenyl]-2,4-dihydro-2-(1-methylpropyl)-3H-1,2,4-triazol-3-one]",solubility in water,≤ 1 µg/mL
